Laboratory results: PubChem BioAssay AID330 (DTP/NCI, 2004)
Several values for one entry are separate records, joined by “and”; a condition that tells them apart may be missing. Equal values may be shown once. Toxic doses and inconclusive results are not listed.

System: P388 leukemia ip, CD2F1 mice, survival T/C
Assay: NCI In Vivo Anticancer Drug Screen. Data for tumor model P388 Leukemia (intraperitoneal) in CD2F1 (CDF1) mice
Details: endpoint: median survival time, higher = longer survival
Method in brief: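 Mice carrying the transplanted tumor received test compound or vehicle. Survival was recorded in each group, and the value is the treated-group measurement divided by that of the vehicle-treated control group.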

[1] = dose: 12.5 mg/kg/injection, schedule: Q01DX009 (ip), vehicle: Klucel (hydroxypropylcellulose) (HPC)
[2] = dose: 25.0 mg/kg/injection, schedule: Q01DX009 (ip), vehicle: Klucel (hydroxypropylcellulose) (HPC)
[3] = dose: 50.0 mg/kg/injection, schedule: Q01DX009 (ip), vehicle: Klucel (hydroxypropylcellulose) (HPC)
[4] = dose: 100.0 mg/kg/injection, schedule: Q01DX009 (ip), vehicle: Klucel (hydroxypropylcellulose) (HPC)
[5] = dose: 200.0 mg/kg/injection, schedule: Q01DX009 (ip), vehicle: Klucel (hydroxypropylcellulose) (HPC)
[6] = dose: 100.0 mg/kg/injection, schedule: Q04DX002 (ip), vehicle: saline with Tween-80
[7] = dose: 200.0 mg/kg/injection, schedule: Q04DX002 (ip), vehicle: saline with Tween-80
[8] = dose: 400.0 mg/kg/injection, schedule: Q04DX002 (ip), vehicle: saline with Tween-80
[9] = dose: 50.0 mg/kg/injection, schedule: Q01DX009 (ip), vehicle: saline with Tween-80
[10] = dose: 200.0 mg/kg/injection, schedule: Q01DX005 (ip), vehicle: saline with Tween-80
[11] = dose: 50.0 mg/kg/injection, schedule: Q01DX009 (ip), vehicle: saline
[12] = dose: 100.0 mg/kg/injection, schedule: Q01DX009 (ip), vehicle: saline
[13] = dose: 200.0 mg/kg/injection, schedule: Q01DX009 (ip), vehicle: saline
[14] = dose: 50.0 mg/kg/injection, schedule: Q01DX005 (ip), vehicle: saline with Tween-80
[15] = dose: 60.0 mg/kg/injection, schedule: Q01DX005 (ip), vehicle: Klucel (hydroxypropylcellulose) (HPC)
[16] = dose: 120.0 mg/kg/injection, schedule: Q01DX005 (ip), vehicle: Klucel (hydroxypropylcellulose) (HPC)
[17] = dose: 50.0 mg/kg/injection, schedule: Q01DX005 (ip), vehicle: Klucel (hydroxypropylcellulose) (HPC)
[18] = dose: 100.0 mg/kg/injection, schedule: Q01DX005 (ip), vehicle: Klucel (hydroxypropylcellulose) (HPC)
[19] = dose: 200.0 mg/kg/injection, schedule: Q01DX005 (ip), vehicle: Klucel (hydroxypropylcellulose) (HPC)

For `Cc1ccc(S(=O)(=O)OCCN(CCOS(=O)(=O)c2ccc(C)cc2)c2ccc(N=O)cc2)cc1`, the T/C (dose: 25.0 mg/kg/injection, schedule: Q04DX003 (ip), vehicle: saline with Tween-80) was 163 % of control, the T/C (dose: 50.0 mg/kg/injection, schedule: Q04DX003 (ip), vehicle: saline with Tween-80) was 168 % of control and the T/C (dose: 100.0 mg/kg/injection, schedule: Q04DX003 (ip), vehicle: saline sonified) was 122 % of control. For the same compound, the T/C (dose: 100.0 mg/kg/injection, schedule: Q04DX003 (ip), vehicle: saline with Tween-80) was 177 % of control.
`Cc1ccc(S(=O)(=O)N/N=C(\C(=O)O)c2ccccc2)cc1` was tested, and the T/C [1] was 102 % of control, the T/C [2] was 97 % of control and the T/C [3] was 96 % of control. The T/C [4] was 94 % of control and the T/C [5] was 93 % of control.
In the case of `Clc1c2ccccc2c(Cl)c2ccccc12`, the T/C [6] is reported as 97 % of control, the T/C [7] is reported as 103 % of control and the T/C [8] is reported as 96 % of control.
In the case of `CC(=O)N(C)O`, the T/C [9] is reported as 100 % of control and 104 % of control, the T/C (dose: 100.0 mg/kg/injection, schedule: Q01DX009 (ip), vehicle: saline with Tween-80) is reported as 105 % of control and 110 % of control and the T/C [10] is reported as 121 % of control. For the same compound, the T/C (dose: 400.0 mg/kg/injection, schedule: Q01DX009 (ip), vehicle: saline with Tween-80) was 160 % of control.
`Cn1c(C(C)(C)O)cnc1[N+](=O)[O-]` was tested, and the T/C [9] was 103 % of control and the T/C (dose: 200.0 mg/kg/injection, schedule: Q01DX009 (ip), vehicle: saline with Tween-80) was 94 % of control.
In the case of `CC1CC[N-]C(CCC2CC(C)CC[N-]2)C1.CC1CC[N-]C(CCC2CC(C)CC[N-]2)C1.[Ni+2].[O-][Cl+3]([O-])([O-])O` (centres undefined), the T/C (dose: 25.0 mg/kg/injection, schedule: Q01DX001 (ip), vehicle: saline) is reported as 99 % of control, the T/C (dose: 50.0 mg/kg/injection, schedule: Q01DX001 (ip), vehicle: saline) is reported as 93 % of control and the T/C (dose: 100.0 mg/kg/injection, schedule: Q01DX001 (ip), vehicle: saline) is reported as 108 % of control and 96 % of control.
In the case of `N=C(N)SCc1ccc(CSC(=N)N)s1`, the T/C (dose: 7.5 mg/kg/injection, schedule: Q01DX009 (ip), vehicle: saline) is reported as 107 % of control, the T/C (dose: 15.0 mg/kg/injection, schedule: Q01DX009 (ip), vehicle: saline) is reported as 101 % of control and the T/C (dose: 30.0 mg/kg/injection, schedule: Q01DX009 (ip), vehicle: saline) is reported as 117 % of control.
With `C[Si](C)(C)N1CCCC1` the T/C (dose: 25.0 mg/kg/injection, schedule: Q01DX009 (ip), vehicle: saline) was 105 % of control, the T/C [11] was 89 % of control and the T/C [12] was 90 % of control. The T/C [13] was 107 % of control.
With `N#CCCP(=O)(O)CO` the T/C [11] was 106 % of control, the T/C [12] was 100 % of control and the T/C [13] was 92 % of control.
For `COc1ccc(C(=O)NCc2cccnc2)cc1C(=O)NCc1cccnc1`, the T/C [14] was 94 % of control, the T/C (dose: 100.0 mg/kg/injection, schedule: Q01DX005 (ip), vehicle: saline with Tween-80) was 103 % of control and the T/C [10] was 99 % of control.
In the case of `Cc1cccc(C2=NCCN2)c1C`, the T/C (dose: 5.0 mg/kg/injection, schedule: Q04DX003 (ip), vehicle: saline with Tween-80) is reported as 100 % of control, the T/C (dose: 10.0 mg/kg/injection, schedule: Q04DX003 (ip), vehicle: saline with Tween-80) is reported as 100 % of control and the T/C (dose: 20.0 mg/kg/injection, schedule: Q04DX003 (ip), vehicle: saline with Tween-80) is reported as 100 % of control.
For `N#CC1CCCC(C#N)N1Cc1ccccc1` (centres undefined), the T/C [15] was 110 % of control and the T/C [16] was 106 % of control.
For `COc1ccc(C(Nc2ccc([N+](=O)[O-])cc2)P(=O)(c2ccccc2)c2ccccc2)cc1` (centres undefined), the T/C (dose: 60.0 mg/kg/injection, schedule: Q01DX005 (ip), vehicle: saline with Tween-80) was 99 % of control, the T/C (dose: 120.0 mg/kg/injection, schedule: Q01DX005 (ip), vehicle: saline with Tween-80) was 92 % of control and the T/C (dose: 240.0 mg/kg/injection, schedule: Q01DX005 (ip), vehicle: saline with Tween-80) was 88 % of control.
In the case of `CC(=O)Oc1ccccc1C(=O)OCc1ccccc1`, the T/C [17] is reported as 94 % of control, the T/C [18] is reported as 92 % of control and the T/C [19] is reported as 100 % of control.
`CC(C)=NNS(=O)(=O)c1ccc(C)cc1` was tested, and the T/C [1] was 101 % of control, the T/C [2] was 93 % of control and the T/C [3] was 95 % of control. The T/C [4] was 97 % of control and the T/C [5] was 88 % of control.
`O=NNc1ccc(Oc2ccc(NN=O)cc2)cc1` was tested, and the T/C (dose: 3.12 mg/kg/injection, schedule: Q01DX009 (ip), vehicle: water) was 96 % of control, the T/C (dose: 6.25 mg/kg/injection, schedule: Q01DX009 (ip), vehicle: water) was 96 % of control and the T/C (dose: 12.5 mg/kg/injection, schedule: Q01DX009 (ip), vehicle: water) was 92 % of control. The T/C (dose: 25.0 mg/kg/injection, schedule: Q01DX009 (ip), vehicle: water) was 100 % of control and 93 % of control, the T/C (dose: 50.0 mg/kg/injection, schedule: Q01DX009 (ip), vehicle: water) was 100 % of control and 93 % of control and the T/C (dose: 100.0 mg/kg/injection, schedule: Q01DX009 (ip), vehicle: water) was 91 % of control. For the same compound, the T/C (dose: 200.0 mg/kg/injection, schedule: Q01DX009 (ip), vehicle: water) was 88 % of control.
In the case of `CC1(C)OC(CC(=O)O)C23COC(C(=O)C4(C)C2CCC2(C)C(c5ccoc5)OC(=O)C5OC524)C13` (centres undefined), the T/C (dose: 0.75 mg/kg/injection, schedule: Q01DX009 (ip), vehicle: saline + alcohol) is reported as 106 % of control, the T/C (dose: 1.5 mg/kg/injection, schedule: Q01DX009 (ip), vehicle: saline + alcohol) is reported as 99 % of control and the T/C (dose: 3.0 mg/kg/injection, schedule: Q01DX009 (ip), vehicle: saline + alcohol) is reported as 101 % of control. The T/C (dose: 6.0 mg/kg/injection, schedule: Q01DX009 (ip), vehicle: saline + alcohol) was 101 % of control.
For `COC(=O)CCC1=C(C)c2cc3[nH]c(cc4[nH]c(cc5nc(cc1n2)C(CCC(=O)OC)=C5C)c(C#N)c4C)c(C#N)c3C`, the T/C [17] was 104 % of control, the T/C [18] was 95 % of control and the T/C [19] was 100 % of control.
With `Nc1ccc(/C=C/c2ccc(N)cc2S(=O)(=O)O)c(S(=O)(=O)O)c1` the T/C (dose: 25.0 mg/kg/injection, schedule: Q01DX009 (ip), vehicle: suspension in saline) was 99 % of control, the T/C [11] was 104 % of control and the T/C (dose: 50.0 mg/kg/injection, schedule: Q01DX009 (ip), vehicle: suspension in saline) was 95 % of control. The T/C [12] was 104 % of control, the T/C (dose: 100.0 mg/kg/injection, schedule: Q01DX009 (ip), vehicle: suspension in saline) was 99 % of control and the T/C [13] was 108 % of control. For the same compound, the T/C (dose: 200.0 mg/kg/injection, schedule: Q01DX009 (ip), vehicle: suspension in saline) was 107 % of control and the T/C (dose: 400.0 mg/kg/injection, schedule: Q01DX009 (ip), vehicle: saline) was 110 % of control.
For `CCCCCCCCCC(=O)c1cc(O)c(C(=O)CCCCCCCCC)cc1O`, the T/C [15] was 103 % of control, the T/C [16] was 104 % of control and the T/C (dose: 240.0 mg/kg/injection, schedule: Q01DX005 (ip), vehicle: Klucel (hydroxypropylcellulose) (HPC)) was 105 % of control.
In the case of `COC1=CC2(CCN(C)C(=O)C(F)(F)F)C(=CC1=O)CCc1ccc(OC)c(O)c12` (centres undefined), the T/C [6] is reported as 101 % of control, the T/C [7] is reported as 100 % of control and the T/C [8] is reported as 93 % of control.
`O=C(O)c1ccnc(C(=O)O)c1` was tested, and the T/C (dose: 100.0 mg/kg/injection, schedule: Q01DX001 (ip), vehicle: saline with Tween-80) was 100 % of control and the T/C (dose: 200.0 mg/kg/injection, schedule: Q01DX001 (ip), vehicle: saline with Tween-80) was 90 % of control.
`CCN=C(N)Nc1nc(C)c2cc(Cl)ccc2n1` was tested, and the T/C (dose: 12.5 mg/kg/injection, schedule: Q01DX005 (ip), vehicle: saline) was 104 % of control, the T/C (dose: 25.0 mg/kg/injection, schedule: Q01DX005 (ip), vehicle: saline) was 104 % of control and the T/C [14] was 109 % of control. The T/C (dose: 50.0 mg/kg/injection, schedule: Q01DX005 (ip), vehicle: saline) was 111 % of control.
